Results from publication PMC3608883 (Clinical Drug Investigation, 2013).
Values joined by “and” are separate entries in the source; they are usually repeats but may differ in a detail not shown here. Equal entries are not always repeated.

Key:
[1] = Treatment-emergent adverse events; assay type: in vivo, human
[2] = Vital signs; assay type: in vivo, human; details: single treatment (LDX alone Arm A; VXR alone Arm B)
[3] = system: cytochrome P450 (CYP) isoenzyme; details: any CYP isoenzyme tested to date; cited from earlier work
[4] = Plasma pharmacokinetics of LDX, d-amphetamine, VEN and ODV; details: mean (SD), day 15
[5] = Bioequivalence test; details: for AUCτ test/reference ratio [90 % CI] / Cmax test/reference ratio [90 % CI]: LDX + VXR Day 30 vs VXR alone Day 15, Treatment Arm B; for AUC / Cmax: human, in vivo
[6] = system: CYP2D6; details: cited from earlier work
[7] = system: CYP2D6; experiment: In vivo CYP2D6 interaction, VXR as CYP2D6 substrate coadministered with LDX; details: inferred from VEN increase and ODV decrease with LDX + VXR coadministration
[8] = treatment arms combined, LDX alone n = 40 and VXR alone n = 37 during dose titration periods, LDX + VXR n = 67

With CS(=O)(=O)O.CS(=O)(=O)O.C[C@@H](Cc1ccccc1)NC(=O)[C@@H](N)CCCCN [LDX, Lisdexamfetamine dimesylate] as the compound, how does the “Time to resolution of serious AE (presyncope)” value ([1]; one participant, LDX 30 mg/day) read?
Its value is at most 10 min.

And the “Any TEAE” value [1, 8]?
The value was 33 (82.5) n (%).

And the “TEAE Anorexia” value [1, 8]?
Its value is 12 (30.0) n (%).

What about the “TEAE Anxiety” value [1, 8] of the same compound?
The value was 5 (12.5) n (%).

And the “TEAE Back pain” value [1, 8]?
Its value is 2 (5.0) n (%).

What about the “TEAE Chest pain” value [1, 8] of the same compound?
The value was 3 (7.5) n (%).

And the “TEAE Constipation” value [1, 8]?
Its value is 3 (7.5) n (%).

What about the “TEAE Diarrhoea” value [1, 8] of the same compound?
Its value is 2 (5.0) n (%).

What about the “TEAE Dizziness” value [1, 8] of the same compound?
The value was 3 (7.5) n (%).

What about the “TEAE Dry mouth” value [1, 8] of the same compound?
Its value is 10 (25.0) n (%).

What about the “TEAE Dyspnoea” value [1, 8] of the same compound?
Its value is 2 (5.0) n (%).

What about the “TEAE Epistaxis” value [1, 8] of the same compound?
The value was 0 (0.0) n (%).

What about the “TEAE Euphoric mood” value [1, 8] of the same compound?
Its value is 3 (7.5) n (%).

And the “TEAE Headache” value [1, 8]?
Its value is 7 (17.5) n (%).

And the “TEAE Insomnia” value [1, 8]?
Its value is 7 (17.5) n (%).

And the “TEAE Libido decreased” value [1, 8]?
Its value is 0 (0.0) n (%).

What about the “TEAE Nausea” value [1, 8] of the same compound?
Its value is 6 (15.0) n (%).

What about the “TEAE Palpitations” value [1, 8] of the same compound?
Its value is 8 (20.0) n (%).

What about the “TEAE Somnolence” value [1, 8] of the same compound?
The value was 7 (17.5) n (%).

And the “TEAE Stomach discomfort” value [1, 8]?
The value was 2 (5.0) n (%).

What about the “TEAE Testicular pain” value [1, 8] of the same compound?
Its value is 0 (0.0) n (%).

And the “TEAE Urinary hesitation” value [1, 8]?
Its value is 0 (0.0) n (%).

What about the “TEAE Vision blurred” value [1, 8] of the same compound?
The value was 2 (5.0) n (%).

And the “Maximum mean increase in DBP” value [2]?
The value was about 6 mmHg.

And the “Maximum mean increase in SBP” value [2]?
Its value is about 7 mmHg.

What about the “Maximum mean increase in pulse rate” value [2] of the same compound?
The value was “approximately 13 beats/min”.

And the “Inhibition of CYP isoenzymes” value [3]?
Its value is “does not inhibit”.

What about the AUCτ ([4]; after LDX alone 70 mg/day) of the same compound?
Its AUCτ is 65.5 (44.0) ng·h/mL.

What about the Cmax ([4]; after LDX alone 70 mg/day) of the same compound?
Its Cmax is 49.1 (32.25) ng/mL.

What about the tmax ([4]; after LDX alone 70 mg/day) of the same compound?
Its tmax is 1.1 (0.3) h.

What about the t½ ([4]; after LDX alone 70 mg/day) of the same compound?
The t½ was 0.4 (0.1) h.

What does the source list for CN(C)CC(c1ccc(O)cc1)C1(O)CCCCC1 (centres unmarked) [ODV, O-desmethylvenlafaxine]?
AUCτ test/reference ratio [90 % CI] [5]: 0.83 [0.71, 0.96] and 0.826 [0.713, 0.956]; Cmax test/reference ratio [90 % CI] [5]: 0.907 [0.777, 1.058]; AUC ([5]; 225 mg/day): 8080 ng·h/mL; Cmax ([5]; 225 mg/day): 392 ng/mL

Which “AUCτ test/reference ratio [90 % CI]” value [5] does the source give for COc1ccc(C(CN(C)C)C2(O)CCCCC2)cc1 (centres unmarked) [VEN, Venlafaxine] here?
The value was 1.13 [0.88, 1.45] and 1.129 [0.88, 1.45].

What about the “Cmax test/reference ratio [90 % CI]” value [5] of the same compound?
The value was 1.10 [0.88, 1.38] and 1.103 [0.881, 1.38].

What about the “Geometric least squares mean Cmax” value ([5]; VXR alone, Day 15, Treatment Arm B) of the same compound?
The value was 180.7 ng/mL.

And the AUC ([5]; 225 mg/day)?
The AUC was 2410 ng·h/mL.

What about the tmax ([4]; after VXR alone 225 mg/day) of the same compound?
Its tmax is 6.4 (0.8) h.

Which “Inhibition of CYP2D6 activity” value [6] does the source give for C[C@H](N)Cc1ccccc1 [d-Amphetamine, dextroamphetamine] here?
The value was “weakly inhibits”.

What about the “Inhibition of CYP2D6 activity, from current pharmacokinetic findings” value [7] of the same compound?
Its value is “weak inhibitor”.

What about the AUC ([5]; 70 mg/day) of the same compound?
The AUC was 1110 ng·h/mL.

And the Cmax ([5]; 70 mg/day)?
Its Cmax is 85.9 ng/mL.
